Reference: US20190345202A1, “ANDROGEN RECEPTOR ANTISENSE OLIGONUCLEOTIDES” (OliPass Corporation, priority 2016, published 2019)
[C(1O2)] = PNA monomer with modified cytosine C(1O2), structure; [A(5)] = PNA monomer with modified adenine A(5), structure; {Fethoc} = Fethoc group on PNA N-terminus; {NH2} = C-terminal amide

Assays:
[1] = system: 10-mer complementary DNA; assay: Tm of duplex between PNA and 10-mer complementary DNA (UV/Vis); format: binding; settings: 4 μM PNA and 4 μM 10-mer DNA, aqueous buffer pH 7.16, 10 mM sodium phosphate, 100 mM NaCl
Procedure: The PNA derivatives in Table 1 were evaluated for their binding affinity for 10-mer DNAs complementarily targeting either the N-terminal or C-terminal. The binding affinity was assessed by Tm value for the duplex between PNA and 10-mer complementary DNA. The duplex between PNA derivatives in Table 1 and fully complementary DNAs show Tm values too high to be reliably determined in aqueous buffer solution, since the buffer solution tends to boil off during the Tm measurement.
Tm values were determined on an UV/Vis spectrometer as follows. A mixed solution of 4 μM PNA oligomer and 4 μM complementary 10-mer DNA in 4 mL aqueous buffer (pH 7.16, 10 mM sodium phosphate, 100 mM NaCl) in 15 mL polypropylene falcon tube was incubated at 90° C. for a minute and slowly cooled down to ambient temperature over several minutes. Then the solution was transferred into a 3 mL quartz UV cuvette equipped with an air-tight cap, and subjected to a Tm measurement at 260 nm on an Agilent 8453 UV/Visible spectrophotometer or a similar one as described in the prior art [PCT/KR2009/001256] or with minor modifications. The 10-mer complementary DNAs for Tm measurement were purchased from Bioneer (www.bioneer.com, Dajeon, Republic of Korea) and used without further purification.

[2] = system: C57BL/6 mice; assay: Hair growth in C57BL/6 mice upon topical administration (brightness score, hair weight); format: in vivo, mouse
Procedure: (§1) [Hair Removal and Grouping] In Day 0, 7 week old female C57BL/6 mice were anesthetized with zoletil/rompun, and the hair in the back was cut and removed with a clipper and wax, respectively. Mice with flawless (i.e. spotless) hair removal were selected and randomly assigned into three groups (7 animals per group).
[Topical Administration] The topical solutions of “ASO 1” were prepared by diluting a mother stock solution of “ASO 1” to 0.2 fM or 1 fM in aqueous 30% (v/v) ethanol supplemented with 3% (v/v) glycerin. About 100 μL of 0 (negative control), 0.2, or 1 fM “ASO 1” was topically administered in the back of each animal using a cotton ball in Days 3, 7, 10, and 14.
[Digital Image Scoring for Hair Growth] For scoring the hair growth, the animals were anesthetized and photographed by group as shown in FIG. 11A using a digital camera at a fixed value of exposure time and illumination. The digital image for the area of the hair removal for each animal was selected and digitally scored for the average brightness over the selected area using “ImageJ” program. Lower brightness score is taken as faster hair growth. Brightness scores of individual animals were combined by group, and subjected to statistical analysis by student's t-test. FIG. 11B summarizes the relative brightness scores of the ASO treated groups against the control group. The relative brightness score tended to decrease with days in the treatment groups. […] Thus, “ASO 1” was concluded to promote hair growth upon topical administrations at 1 fM.
[Scoring by Hair Weight] In Day 21, the animals were anesthetized and the hair in the back was cut with a clipper. The hair samples from individual animals were combined by group, and weighed to evaluate the hair growth between Day 0 and Day 21. The average hair weight was 70.5 mg/animal for the control group, 90.8 mg/animal for the 0.2 fM treatment group, and 94.4 mg/animal for the 1 fM treatment group. Thus “ASO 1” was concluded to promote hair growth upon topical administrations at 0.2 fM as well as 1 fM.
as §1, with “(10” for “(7”
[Topical Administration] The topical solutions of “ASO 5” were prepared by diluting a mother stock solution of “ASO 5” to 1, 5, or 25 fM in aqueous 30% (v/v) ethanol supplemented with 3% (v/v) glycerin. About 100 μL of each ASO solution or vehicle (negative control) was topically administered to in the back of an animal using a cotton ball in Days 3, 7, 10, 14 and 21.
Following the shaving in Day 21, the animals received a single topical administration of either vehicle or “ASO 5” at 1 fM, 5 fM, or 25 fM. In Day 53, the hair in the back was collected by shaving with a clipper to determine the total amount of hair growth between Days 21 and 53. The average hair weights of the 1 fM, 5 fM, and 25 fM groups were 1,630%, 1,450%, and 771% of the non-treated group, respectively. Thus “ASO 5” was concluded to promote hair growth upon topical administrations at 1 to 25 fM.
as §1, with “(9” for “(7”
[Topical Administration] The topical solutions of “ASO 10” were prepared by diluting a mother stock solution of “ASO 10” to 1, 5, or 25 fM in aqueous 30% (v/v) ethanol supplemented with 3% (v/v) glycerin. About 100 μL of each ASO solution or vehicle (negative control) was topically administered to in the back of an animal using a cotton ball in Day 2.

[3] = system: human AR mRNA; assay: qPCR (TaqMan probe) of AR mRNA level in MCF7 cells; format: cell-based; settings: 1 zM to 1 aM, 24 hours
Text: The qPCR reaction was monitored with a TaqMan probe of [(5′→3′) TTTCTTCAG-ZEN-CTTCCGGGCTC-3IABkFQ (SEQ ID NO: 19)].

[4] = system: human AR mRNA; assay: qPCR (SYBR Green) of AR mRNA level in MCF7 cells; settings: 5 hours

Row | Substance | Tm Value, 10-mer DNA against C-Terminal [1] [°C] | Tm Value, 10-mer DNA against N-Terminal [1] [°C] | average hair weight ([2]; 1 fM topical in Day 2, hair growth between Day 0 and Day 27) | average hair weight ([2]; 5 fM topical in Day 2, hair growth between Day 0 and Day 27) | average hair weight ([2]; 25 fM topical in Day 2, hair growth between Day 0 and Day 27) | brightness score vs non-treatment group ([2]; Day 27, 1 fM and 5 fM groups, topical in Day 2) | decrease of relative expression level of exons 4-6 (TaqMan) [3] [%] | decrease of relative expression level of exons 4-6 ([4]; 1 zM to 1,000 zM) | average hair weight ([2]; 1 fM topical, hair growth between Day 0 and Day 21) | average hair weight ([2]; 1 fM, single topical administration after shaving in Day 21, hair growth between Days 21 and 53) | average hair weight ([2]; 5 fM topical, hair growth between Day 0 and Day 21) | average hair weight ([2]; 5 fM, single topical administration after shaving in Day 21, hair growth between Days 21 and 53) | average hair weight ([2]; 25 fM topical, hair growth between Day 0 and Day 21) | average hair weight ([2]; 25 fM, single topical administration after shaving in Day 21, hair growth between Days 21 and 53) | brightness score vs non-treated group ([2]; Day 17, 1 fM and 25 fM groups, topical in Days 3, 7, 10, 14 and 21) | exon message levels (exons 4-6) relative to negative control ([4]; 1 aM) | decrease of exon message levels (exons 4-6) ([4]; 100 zM) [%]
1 | Fethoc-C(1O2)TT-A(5)CC-A(5)GG(6)-CA(5)A-NH2 (antisense CTTACCAGGCAA; N-Fethoc, C-terminal amide, chemistry not fully specified) [ASO 10] | 78.4 | 84.4 | 115 % of the non-treated group | 114 % of the non-treated group | 119 % of the non-treated group | significantly lower | 50 to 70 | 60-80% |  |  |  |  |  |  |  |  | 
2 | Fethoc-C(1O2)TT-A(5)CC-A(5)GG-C(1O2)AA(5)-G-NH2 (antisense CTTACCAGGCAAG; all peptide nucleic acid (PNA), [C(1O2)] at 1, 10, [A(5)] at 4, 7, 12, 5' {Fethoc}, 3' {NH2}; peptide nucleic acid, written N to C terminus) [ASO 5] | 81.3 | 86.1 |  |  |  |  |  |  | 293 % of the negative control group | 1,630 % of the non-treated group | 306 % of the negative control group | 1,450 % of the non-treated group | 278 % of the negative control group | 771 % of the non-treated group | significantly lower | rebounded to near the levels of the negative control | 50 to 60
